Structures can show the parent of a compound that is named as a salt. Where two headings read alike, the source gives them in different places.
How the values were obtained:
[1] = biological target: T1, recombinant thioredoxin reductase 1 (TrxR1) (Homo sapiens, UniProt Q16881); assay: Inhibition of recombinant TrxR1 (DTNB assay); type: biochemical
T1 sequence (Q16881 1-649): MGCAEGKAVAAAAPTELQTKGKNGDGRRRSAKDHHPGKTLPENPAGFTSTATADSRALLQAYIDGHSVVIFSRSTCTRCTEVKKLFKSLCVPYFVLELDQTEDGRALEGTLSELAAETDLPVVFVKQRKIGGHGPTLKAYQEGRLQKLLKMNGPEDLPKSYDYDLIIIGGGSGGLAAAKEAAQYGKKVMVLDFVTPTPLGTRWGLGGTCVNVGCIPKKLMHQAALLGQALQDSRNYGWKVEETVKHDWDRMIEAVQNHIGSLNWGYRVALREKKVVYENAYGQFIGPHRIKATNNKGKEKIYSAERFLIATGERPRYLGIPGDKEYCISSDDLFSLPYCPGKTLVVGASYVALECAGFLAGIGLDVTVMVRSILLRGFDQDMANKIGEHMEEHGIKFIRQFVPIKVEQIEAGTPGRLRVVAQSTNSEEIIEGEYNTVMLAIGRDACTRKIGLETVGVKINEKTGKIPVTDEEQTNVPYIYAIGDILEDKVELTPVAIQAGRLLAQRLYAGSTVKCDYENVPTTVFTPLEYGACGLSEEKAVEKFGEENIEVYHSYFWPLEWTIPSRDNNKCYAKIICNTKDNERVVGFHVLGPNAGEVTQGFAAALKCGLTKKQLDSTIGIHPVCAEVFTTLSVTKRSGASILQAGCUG
Protocol: (§1) Small molecule inhibition of recombinant thioredoxin reductase 1 (TrxR1) and gluthathione reductase (GR) was examined in 96-well plate format. 15 nM TrxR1 was incubated in the presence of 250 μM NADPH, 0.1 mg/ml BSA, and various concentrations of the compound of Example 1 (1% DMSO final) in 50 mM Tris (pH 7.5) and 2 mM EDTA buffer for 15 minutes. Following the incubation period, 2.5 mM DTNB was added to each well and the change in O.D. at 412 nm was followed. Percent activity was determined using DMSO vehicle and no TrxR1 (blank) controls. 2 nM GR was incubated in the presence of 250 μM NADPH, 0.1 mg/ml BSA, and various concentrations of compounds (1% DMSO final) in 50 mM Tris (pH 7.5) and 2 mM EDTA buffer for 15 minutes. Following the incubation period, 1 mM GSSG was added to each well and the change in O.D. at 340 nm was followed. Percent activity was determined using DMSO vehicle and no GR (blank) controls.

[2] = biological target: T2, gluthathione reductase (GR) (Homo sapiens, UniProt P00390); assay: Inhibition of recombinant GR (GSSG assay); type: biochemical
T2 sequence (P00390 44-522): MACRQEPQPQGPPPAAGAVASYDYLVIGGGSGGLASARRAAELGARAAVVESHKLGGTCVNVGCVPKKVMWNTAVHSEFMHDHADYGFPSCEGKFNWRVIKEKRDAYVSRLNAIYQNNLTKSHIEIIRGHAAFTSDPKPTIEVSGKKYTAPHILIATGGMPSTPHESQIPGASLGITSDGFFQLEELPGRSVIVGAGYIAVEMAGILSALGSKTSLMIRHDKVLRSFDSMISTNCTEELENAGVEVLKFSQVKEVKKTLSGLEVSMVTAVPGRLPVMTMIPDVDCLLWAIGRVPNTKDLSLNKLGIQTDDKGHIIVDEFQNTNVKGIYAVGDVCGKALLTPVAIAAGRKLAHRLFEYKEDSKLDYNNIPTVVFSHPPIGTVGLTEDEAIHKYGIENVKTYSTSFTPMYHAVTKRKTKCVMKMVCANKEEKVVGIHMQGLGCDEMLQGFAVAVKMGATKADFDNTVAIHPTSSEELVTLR
Protocol: as §1

[3] = Biological Example 4, assays of Biological Example 1, read-out: TrxR Inhibition
[4] = Biological Example 4, assays of Biological Example 1
[5] = Biological Example 1, 15 nM TrxR1, 250 μM NADPH, 15 minutes incubation, read-out: TrxR inhibition
[6] = Biological Example 1, 2 nM GR, 250 μM NADPH, 15 minutes incubation

O=C1C=CC2C3C(=O)N(c4ccccc4)C(=O)C3C1N2Cc1cc(F)cc(F)c1 (stereo not shown) [Example 43, 11-(3,5-Difluorobenzyl)-4-phenyl-4,11-diazatricyclo[5.3.1.0^2,6]undec-9-ene-3,5,8-trione Trifluoroacetate]
IC50 [1, 3]: 1.59 µM | IC50 [2, 4]: 91.7 µM

CC1=CC(=O)C2C3C(=O)N(c4ccccc4)C(=O)C3C1N2Cc1ccccc1 (stereo not shown) [Example 12, 9-Benzyl-7-methyl-2-phenyl-3a,4,8,8a-tetrahydro-4,8-epiminocyclohepta[c]-pyrrole-1,3,5(2H)-trione Trifluoroacetate]
IC50 [1, 3]: 1.25 µM | IC50 [2, 4]: 41.4 µM

Cc1cccc(CN2[C@@H]3C(=O)C=C[C@H]2C2C(=O)N(c4cccc(N5CCOCC5)c4)C(=O)C23)c1 (stereo partly drawn) [Example 69, endo-11-(3-Methylbenzyl)-4-(3-(4-morpholino)phenyl)-4,11-diazatricyclo-[5.3.1.0^2,6]undec-9-ene-3,5,8-trione Trifluoroacetate]
IC50 [1, 5]: 7.4 µM | IC50 [1, 3]: 4.15 µM | IC50 [2, 6]: > 100 µM | IC50 [2, 4]: > 100 µM

CC1=CC(=O)C2C3C(=O)N(Cc4ccccc4)C(=O)C3C1N2Cc1ccccc1 (stereo not shown) [Example 15, 4,11-Dibenzyl-10-methyl-4,11-diazatricyclo[5.3.1.0^2,6]undec-9-ene-3,5,8-trione Trifluoroacetate]
IC50 [1, 5]: 1.45 µM | IC50 [1, 3]: 3.33 µM | IC50 [2, 6]: > 100 µM | IC50 [2, 4]: > 100 µM

O=C1C=C[C@H]2[C@@H]3C(=O)N(c4ccccc4)C(=O)[C@@H]3[C@@H]1N2Cc1ccc(-c2ccccc2)cc1 (relative stereo) [Example 2, exo-11-([1,1′-Biphenyl]-4-ylmethyl)-4-phenyl-4,11-diazatricyclo[5.3.1.0^2,6]-undec-9-ene-3,5,8-trione Trifluoroacetate]
IC50 [1, 3]: 1.46 µM | IC50 [2, 4]: 65.2 µM

Cc1cccc(CN2[C@@H]3C(=O)C=C[C@H]2[C@@H]2C(=O)N(c4cccc(N5CCOCC5)c4)C(=O)[C@@H]23)c1 (relative stereo) [Example 70, exo-11-(3-Methylbenzyl)-4-(3-(4-morpholino)phenyl)-4,11-diazatricyclo-[5.3.1.0^2,6]undec-9-ene-3,5,8-trione Trifluoroacetate]
IC50 [1, 5]: 2.26 µM | IC50 [1, 3]: 2.62 µM | IC50 [2, 6]: > 100 µM | IC50 [2, 4]: > 100 µM

O=C1C=C[C@H]2[C@@H]3C(=O)N(c4ccccc4)C(=O)[C@@H]3[C@@H]1N2Cc1ccc(F)cc1Cl (relative stereo) [Example 18, exo-11-(2-Chloro-4-fluorobenzyl)-4-phenyl-4,11-diazatricyclo[5.3.1.0^2,6]-undec-9-ene-3,5,8-trione Trifluoroacetate]
IC50 [1, 5]: 2.45 µM | IC50 [1, 3]: 0.94 µM | IC50 [2, 6]: 70.4 µM | IC50 [2, 4]: 22 µM

Cc1ccc(F)c(CN2C3C=CC(=O)C2C2C(=O)N(c4ccccc4)C(=O)C23)c1F (stereo not drawn) [Example 38, endo-11-(2,6-Difluoro-3-methylbenzyl)-4-phenyl-4,11-diazatricyclo-[5.3.1.0^2,6]undec-9-ene-3,5,8-trione Trifluoroacetate]
IC50 [1, 3]: 1.36 µM | IC50 [2, 4]: 12.3 µM

Cc1cccc(CN2[C@@H]3C(=O)C=C[C@H]2[C@@H]2C(=O)N(c4ccc(Br)cc4)C(=O)[C@@H]23)c1 (relative stereo) [Example 66, exo-4-(4-Bromophenyl)-11-(3-methylbenzyl)-4,11-diazatricyclo[5.3.1.0^2,6]-undec-9-ene-3,5,8-trione Trifluoroacetate]
IC50 [1, 3]: 1.43 µM | IC50 [2, 4]: > 100 µM

O=C1C=C[C@H]2C3C(=O)N(C4CCCCC4)C(=O)C3[C@@H]1N2Cc1ccccc1 (mixture of isomers) [Example 10, endo-11-Benzyl-4-cyclohexyl-4,11-diazatricyclo[5.3.1.0^2,6]undec-9-ene-3,5,8-trione Trifluoroacetate]
IC50 [1, 5]: 2.7 µM | IC50 [1, 3]: 0.79 µM | IC50 [2, 6]: > 100 µM | IC50 [2, 4]: > 100 µM

CCN1C(=O)C2C(C1=O)[C@@H]1C=CC(=O)[C@H]2N1Cc1ccccc1 (relative stereo) [Example 46, endo-11-Benzyl-4-ethyl-4,11-diazatricyclo[5.3.1.0^2,6]undec-9-ene-3,5,8-trione Trifluoroacetate]
IC50 [1, 3]: 5.1 µM | IC50 [2, 4]: > 100 µM

O=C1C=C[C@H]2[C@@H]3C(=O)N(c4ccc(O)cc4)C(=O)[C@@H]3[C@@H]1N2Cc1ccccc1 (relative stereo) [Example 54, exo-11-Benzyl-4-(4-hydroxyphenyl)-4,11-diazatricyclo[5.3.1.0^2,6]undec-9-ene-3,5,8-trione Trifluoroacetate]
IC50 [1, 3]: 1.8 µM | IC50 [2, 4]: > 100 µM

CN1C(=O)C2C(C1=O)[C@@H]1C=CC(=O)[C@H]2N1Cc1ccccc1 (mixture of isomers) [Example 50, endo-11-Benzyl-4-methyl-4,11-diazatricyclo[5.3.1.0^2,6]undec-9-ene-3,5,8-trione Trifluoroacetate]
IC50 [1, 3]: 3.08 µM | IC50 [2, 4]: > 100 µM

Cc1cc(CN2C3C=CC(=O)C2C2C(=O)N(c4ccccc4)C(=O)C23)ccc1F (stereo not drawn) [Example 37, exo-11-(4-Fluoro-3-methylbenzyl)-4-phenyl-4,11-diazatricyclo[5.3.1.0^2,6]-undec-9-ene-3,5,8-trione Trifluoroacetate]
IC50 [1, 3]: 0.93 µM | IC50 [2, 4]: > 100 µM

CC(=O)Nc1ccc(N2C(=O)[C@@H]3[C@H](C2=O)[C@H]2C(=O)C=C[C@@H]3N2Cc2cccc(C)c2)cc1 (stereo in doubt) [Example 57, N-(4-(11-(3-Methylbenzyl)-3,5,10-trioxo-4,11-diazatricyclo[5.3.1.0^2,6]undec-8-en-4-yl)phenyl)acetamide Trifluoroacetate]
IC50 [1, 3]: 3.04 µM | IC50 [2, 4]: > 100 µM

O=C1C=C[C@H]2[C@@H]3C(=O)N(C4CCCCC4)C(=O)[C@@H]3[C@@H]1N2Cc1ccccc1 (relative stereo) [Example 9, exo-11-Benzyl-4-cyclohexyl-4,11-diazatricyclo[5.3.1.0^2,6]undec-9-ene-3,5,8-trione Trifluoroacetate]
IC50 [1, 5]: 1.85 µM | IC50 [1, 3]: 1.85 µM | IC50 [2, 6]: > 100 µM | IC50 [2, 4]: > 100 µM

O=C1C=CC2C3C(=O)N(c4ccccc4)C(=O)C3C1N2Cc1ccc(F)cc1 (stereo not shown) [Example 8, 11-(4-Fluorobenzyl)-4-phenyl-4,11-diazatricyclo[5.3.1.0^2,6]undec-9-ene-3,5,8-trione Trifluoroacetate]
IC50 [1, 3]: 2.03 µM | IC50 [2, 4]: 28.5 µM

CCc1ccc(N2C(=O)[C@@H]3[C@H](C2=O)[C@H]2C(=O)C=C[C@@H]3N2Cc2cccc(C)c2)cc1 (relative stereo) [Example 59, exo-4-(4-Ethylphenyl)-11-(3-methylbenzyl)-4,11-diazatricyclo[5.3.1.0^2,6]-undec-9-ene-3,5,8-trione Trifluoroacetate]
IC50 [1, 3]: 1.63 µM | IC50 [2, 4]: > 100 µM

O=C1C=C[C@H]2[C@@H]3C(=O)N(Cc4ccccc4)C(=O)[C@@H]3[C@@H]1N2Cc1ccccc1 (relative stereo) [Example 11, exo-4,11-Dibenzyl-4,11-diazatricyclo[5.3.1.0^2,6]undec-9-ene-3,5,8-trione Trifluoroacetate]
IC50 [1, 3]: 0.9 µM | IC50 [2, 4]: > 100 µM

O=C1C=C[C@H]2[C@@H]3C(=O)N(c4ccccc4)C(=O)[C@@H]3[C@@H]1N2CC1CC1 (relative stereo) [Example 25, exo-11-(Cyclopropylmethyl)-4-phenyl-4,11-diazatricyclo[5.3.1.0^2,6]undec-9-ene-3,5,8-trione Trifluoroacetate]
IC50 [1, 3]: 7.06 µM | IC50 [2, 4]: > 100 µM

From patent publication US10881653B2, “Tricyclic compounds and their use in the treatment of cancer” (The United States of America, as represented by the …, priority 2015, dated 2021)
